The values that follow come from ChEMBL document CHEMBL1139433 (J Med Chem, 2004).

The test addresses T1, Angiotensin II receptor (AT-1) type-1 (Rattus norvegicus, UniProt P29089+P25095).
T1 sequence (P29089 whole entry): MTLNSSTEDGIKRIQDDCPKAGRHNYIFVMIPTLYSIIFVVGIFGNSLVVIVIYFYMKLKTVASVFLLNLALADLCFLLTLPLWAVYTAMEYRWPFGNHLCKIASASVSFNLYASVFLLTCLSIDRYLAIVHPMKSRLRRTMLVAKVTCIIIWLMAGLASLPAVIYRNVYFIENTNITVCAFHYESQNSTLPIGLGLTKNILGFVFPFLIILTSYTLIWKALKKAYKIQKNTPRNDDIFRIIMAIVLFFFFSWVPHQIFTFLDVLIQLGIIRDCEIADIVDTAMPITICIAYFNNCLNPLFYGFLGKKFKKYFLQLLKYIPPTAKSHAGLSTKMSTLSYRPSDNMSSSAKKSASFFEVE
T1 sequence (P25095 whole entry): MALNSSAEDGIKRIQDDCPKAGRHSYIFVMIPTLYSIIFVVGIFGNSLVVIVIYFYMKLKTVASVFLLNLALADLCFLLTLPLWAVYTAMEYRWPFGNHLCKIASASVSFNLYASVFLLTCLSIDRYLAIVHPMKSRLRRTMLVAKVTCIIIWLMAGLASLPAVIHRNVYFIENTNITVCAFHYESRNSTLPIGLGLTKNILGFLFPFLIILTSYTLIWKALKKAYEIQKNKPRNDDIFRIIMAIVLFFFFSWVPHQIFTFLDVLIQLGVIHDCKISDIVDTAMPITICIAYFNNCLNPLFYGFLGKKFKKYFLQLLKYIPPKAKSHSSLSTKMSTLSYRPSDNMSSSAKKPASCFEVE
The experiment in a line: Displacement of [125I]-Ang II from rat liver membrane angiotensin II type 1 (AT1) receptor. On the technique in general: Loss of bound radioactivity is the signal in a displacement assay; it reports binding, not function.

What is called Ki is a measure of affinity in units of concentration, obtained from inhibition or displacement. A high value points to lower affinity.

Square brackets hold non-standard residues; d marks the D form. Peptide text beside a SMILES is read from it. Phe(4-NH2) = Nc1ccc(C[C@H](N)C(=O)O)cc1

The compound `CC[C@H](C)[C@H](NC(=O)[C@H](Cc1ccc(O)cc1)NC(=O)[C@@H](NC(=O)[C@H](CCCN=C(N)N)NC(=O)[C@@H](N)CC(=O)O)C(C)C)C(=O)N[C@@H](Cc1ccc(N)cc1)C(=O)N1CCC[C@H]1C(=O)N[C@@H](Cc1ccccc1)C(=O)O` (H-DRVYI[Phe(4-NH2)]PF-OH) registered a Ki greater than 10 µM.
